Measured values: ChEMBL document CHEMBL1773059, “NMS-P937, a 4,5-dihydro-1H-pyrazolo[4,3-h]quinazoline derivative as potent and selective Polo-like kinase 1 inhibitor” (Bioorg Med Chem Lett, 2011)
pIC50: −log10 of the molar value. In brackets after ≈: the same amount, converted by molar mass.

How the values were obtained:
[1] = molecular target: Tyrosine-protein kinase SYK (Homo sapiens, UniProt P43405); experiment: Inhibition of Syk assessed as [33P]gamma-ATP incorporation into substrate after 60 mins by gamma counting
[2] = molecular target: High affinity nerve growth factor receptor (Homo sapiens, UniProt P04629); experiment: Inhibition of TRKA assessed as [33P]gamma-ATP incorporation into substrate after 60 mins by gamma counting
[3] = molecular target: Non-receptor tyrosine-protein kinase TYK2 (Homo sapiens, UniProt P29597); experiment: Inhibition of TYK2 assessed as [33P]gamma-ATP incorporation into substrate after 60 mins by gamma counting
Mus musculus [4] = experiment: Toxicity in CD1 nu/nu mouse xenografted with human HCT116 cells assessed as mortality at 120 mg/kg, po BID administered on days 1 to 2 in weekly scheduling for 4 cycles; assay type: organism-based, HCT-116; design: dose 120 mg/kg, route oral; details: in vivo
[5] = molecular target: Serine/threonine-protein kinase Nek6 (Homo sapiens, UniProt Q9HC98); experiment: Inhibition of NEK6 assessed as [33P]gamma-ATP incorporation into substrate after 60 mins by gamma counting
[6] = molecular target: Serine/threonine-protein kinase PAK 4 (Homo sapiens, UniProt O96013); experiment: Inhibition of PAK4 assessed as [33P]gamma-ATP incorporation into substrate after 60 mins by gamma counting
Ephrin type-A receptor 2 = Ephrin type-A receptor 2 (Homo sapiens, UniProt P29317); experiment: Inhibition of EphA2 assessed as [33P]gamma-ATP incorporation into substrate after 60 mins by gamma counting
[7] = molecular target: Fibroblast growth factor receptor 1 (Homo sapiens, UniProt P11362); experiment: Inhibition of FGFR1 assessed as [33P]gamma-ATP incorporation into substrate after 60 mins by gamma counting
[8] = molecular target: Inhibitor of nuclear factor kappa-B kinase subunit beta (Homo sapiens, UniProt O14920); experiment: Inhibition of IKK2 assessed as [33P]gamma-ATP incorporation into substrate after 60 mins by gamma counting
[9] = molecular target: Tyrosine-protein kinase JAK1 (Homo sapiens, UniProt P23458); experiment: Inhibition of JAK1 assessed as [33P]gamma-ATP incorporation into substrate after 60 mins by gamma counting
[10] = molecular target: Hepatocyte growth factor receptor (Homo sapiens, UniProt P08581); experiment: Inhibition of MET assessed as [33P]gamma-ATP incorporation into substrate after 60 mins by gamma counting
[11] = molecular target: Serine/threonine-protein kinase 26 (Homo sapiens, UniProt Q9P289); experiment: Inhibition of MST4 assessed as [33P]gamma-ATP incorporation into substrate after 60 mins by gamma counting
[12] = molecular target: Eukaryotic translation initiation factor 2-alpha kinase 3 (Homo sapiens, UniProt Q9NZJ5); experiment: Inhibition of PERK assessed as [33P]gamma-ATP incorporation into substrate after 60 mins by gamma counting
[13] = molecular target: Serine/threonine-protein kinase pim-1 (Homo sapiens, UniProt P11309); experiment: Inhibition of PIM1 assessed as [33P]gamma-ATP incorporation into substrate after 60 mins by gamma counting
[14] = molecular target: cAMP-dependent protein kinase catalytic subunit alpha (Homo sapiens, UniProt P17612); experiment: Inhibition of PKAalpha assessed as [33P]gamma-ATP incorporation into substrate after 60 mins by gamma counting
[15] = molecular target: Proto-oncogene tyrosine-protein kinase ROS (Homo sapiens, UniProt P08922); experiment: Inhibition of ROS1 assessed as [33P]gamma-ATP incorporation into substrate after 60 mins by gamma counting
[16] = Inhibition of SULU1 assessed as [33P]gamma-ATP incorporation into substrate after 60 mins by gamma counting
HCT-116 [17] = experiment: Antitumor activity against human HCT116 cells xenografted in CD1 nu/nu mouse assessed as tumor growth inhibition at 60 mg/kg, po administered once daily for 1 to 10 days measured on day 23; assay type: functional; details: read-out: TGI
[18] = Inhibition of CK2 assessed as [33P]gamma-ATP incorporation into substrate after 60 mins by gamma counting
Activated CDC42 kinase 1 = Activated CDC42 kinase 1 (Homo sapiens, UniProt Q07912); experiment: Inhibition of ACK1 assessed as [33P]gamma-ATP incorporation into substrate after 60 mins by gamma counting
[19] = molecular target: RAC-alpha serine/threonine-protein kinase (Homo sapiens, UniProt P31749); experiment: Inhibition of AKT1 assessed as [33P]gamma-ATP incorporation into substrate after 60 mins by gamma counting
Aurora kinase B = Aurora kinase B (Homo sapiens, UniProt Q96GD4); experiment: Inhibition of Aur-B assessed as [33P]gamma-ATP incorporation into substrate after 60 mins by gamma counting
[20] = molecular target: Mitotic checkpoint serine/threonine-protein kinase BUB1 (Homo sapiens, UniProt O43683); experiment: Inhibition of BUB1 assessed as [33P]gamma-ATP incorporation into substrate after 60 mins by gamma counting
[21] = molecular target: CDC7/DBF4 (Cell division cycle 7-related protein kinase/Activator of S phase kinase) (Homo sapiens, UniProt O00311); experiment: Inhibition of CDC7/DBF4 assessed as [33P]gamma-ATP incorporation into substrate after 60 mins by gamma counting; assay type: protein-complex assay
[22] = molecular target: Cyclin-dependent kinase 2/cyclin A (Homo sapiens, UniProt P24941); experiment: Inhibition of CDK2/CYCA assessed as [33P]gamma-ATP incorporation into substrate after 60 mins by gamma counting; assay type: protein-complex assay
[23] = molecular target: Cyclin-dependent kinase 4/cyclin D1 (Homo sapiens, UniProt P11802); experiment: Inhibition of CDK4/CYCD1 assessed as [33P]gamma-ATP incorporation into substrate after 60 mins by gamma counting; assay type: protein-complex assay
[24] = molecular target: Eukaryotic elongation factor 2 kinase (Homo sapiens, UniProt O00418); experiment: Inhibition of EEF2K assessed as [33P]gamma-ATP incorporation into substrate after 60 mins by gamma counting
[25] = molecular target: Epidermal growth factor receptor (Homo sapiens, UniProt P04626+P00533+Q15303+P21860); experiment: Inhibition of EGFR1 assessed as [33P]gamma-ATP incorporation into substrate after 60 mins by gamma counting; assay type: protein assay
[26] = Solubility of compound at pH 7; assay type: physicochemical; details: buffer
[27] = Solubility of compound in 10% Tween 80; assay type: physicochemical
Caco-2 = experiment: Apparent permeability of the compound across human Caco2 cells; assay type: ADME, cell-based
[28] = Apparent permeability of the compound by PAMPA assay; assay type: ADME
[29] = Intrinsic clearance in human liver microsomes at 1 uM; assay type: ADME, Microsome
Mus musculus [30] = experiment: Toxicity in CD1 nu/nu mouse xenografted with human HCT116 cells assessed as reversible body weight loss at 45 mg/kg, iv BID administered on days 1 to 3 in weekly scheduling for 2 cycles measured on day 15; assay type: organism-based, HCT-116; design: dose 45 mg/kg, route intravenous; details: in vivo
HCT-116 [31] = experiment: Antitumor activity against human HCT116 cells xenografted in CD1 nu/nu mouse assessed as tumor growth inhibition at 90 mg/kg, po once daily administered on days 1 to 2 daily in weekly scheduling for 4 cycles measured on day 36; details: HCT-116, po, 864 h, read-out: TGI
HCT-116 [32] = experiment: Antitumor activity against human HCT116 cells xenografted in CD1 nu/nu mouse assessed as tumor growth inhibition at 120 mg/kg, po once daily administered on days 1 to 2 daily in weekly scheduling for 4 cycles measured on day 36; details: HCT-116, po, 864 h, read-out: TGI

Chain of Serine/threonine-protein kinase PAK 4 (O96013 whole entry): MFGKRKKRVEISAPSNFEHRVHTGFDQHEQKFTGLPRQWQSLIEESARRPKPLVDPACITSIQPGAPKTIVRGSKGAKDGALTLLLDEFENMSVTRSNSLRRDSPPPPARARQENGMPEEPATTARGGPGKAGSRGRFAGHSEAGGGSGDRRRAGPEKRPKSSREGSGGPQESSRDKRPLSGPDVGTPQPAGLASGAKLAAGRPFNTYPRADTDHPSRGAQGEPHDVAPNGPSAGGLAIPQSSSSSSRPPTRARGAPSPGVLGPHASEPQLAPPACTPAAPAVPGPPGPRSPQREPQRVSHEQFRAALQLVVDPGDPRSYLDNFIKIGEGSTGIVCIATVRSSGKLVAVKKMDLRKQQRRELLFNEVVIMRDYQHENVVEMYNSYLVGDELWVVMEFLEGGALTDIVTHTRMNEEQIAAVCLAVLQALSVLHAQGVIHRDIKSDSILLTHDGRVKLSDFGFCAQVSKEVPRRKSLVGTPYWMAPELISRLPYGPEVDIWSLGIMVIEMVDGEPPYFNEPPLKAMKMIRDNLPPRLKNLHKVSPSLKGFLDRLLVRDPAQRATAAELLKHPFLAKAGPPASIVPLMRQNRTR
Chain of High affinity nerve growth factor receptor (P04629 whole entry): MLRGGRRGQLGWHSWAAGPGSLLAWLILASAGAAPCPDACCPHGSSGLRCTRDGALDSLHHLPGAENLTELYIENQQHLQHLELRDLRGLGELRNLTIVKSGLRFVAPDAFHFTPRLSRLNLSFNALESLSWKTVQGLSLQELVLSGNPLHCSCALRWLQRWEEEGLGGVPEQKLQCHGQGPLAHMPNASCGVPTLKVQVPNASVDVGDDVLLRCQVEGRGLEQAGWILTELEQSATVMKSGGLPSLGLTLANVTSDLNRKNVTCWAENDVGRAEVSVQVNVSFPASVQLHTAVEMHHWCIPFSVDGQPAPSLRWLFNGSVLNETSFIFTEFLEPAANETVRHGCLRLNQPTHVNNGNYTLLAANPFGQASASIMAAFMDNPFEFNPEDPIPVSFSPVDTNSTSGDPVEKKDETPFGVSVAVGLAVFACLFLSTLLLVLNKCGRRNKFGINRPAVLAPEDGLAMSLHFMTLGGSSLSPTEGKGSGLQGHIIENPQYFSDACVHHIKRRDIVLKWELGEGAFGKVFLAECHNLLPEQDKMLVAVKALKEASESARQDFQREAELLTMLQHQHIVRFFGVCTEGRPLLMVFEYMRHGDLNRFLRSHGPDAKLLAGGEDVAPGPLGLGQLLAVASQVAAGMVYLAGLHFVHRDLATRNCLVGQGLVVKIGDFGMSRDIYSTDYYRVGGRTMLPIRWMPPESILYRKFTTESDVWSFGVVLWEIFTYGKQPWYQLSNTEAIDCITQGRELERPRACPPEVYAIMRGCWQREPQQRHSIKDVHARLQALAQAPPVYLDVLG
Chain of Tyrosine-protein kinase JAK1 (P23458 whole entry): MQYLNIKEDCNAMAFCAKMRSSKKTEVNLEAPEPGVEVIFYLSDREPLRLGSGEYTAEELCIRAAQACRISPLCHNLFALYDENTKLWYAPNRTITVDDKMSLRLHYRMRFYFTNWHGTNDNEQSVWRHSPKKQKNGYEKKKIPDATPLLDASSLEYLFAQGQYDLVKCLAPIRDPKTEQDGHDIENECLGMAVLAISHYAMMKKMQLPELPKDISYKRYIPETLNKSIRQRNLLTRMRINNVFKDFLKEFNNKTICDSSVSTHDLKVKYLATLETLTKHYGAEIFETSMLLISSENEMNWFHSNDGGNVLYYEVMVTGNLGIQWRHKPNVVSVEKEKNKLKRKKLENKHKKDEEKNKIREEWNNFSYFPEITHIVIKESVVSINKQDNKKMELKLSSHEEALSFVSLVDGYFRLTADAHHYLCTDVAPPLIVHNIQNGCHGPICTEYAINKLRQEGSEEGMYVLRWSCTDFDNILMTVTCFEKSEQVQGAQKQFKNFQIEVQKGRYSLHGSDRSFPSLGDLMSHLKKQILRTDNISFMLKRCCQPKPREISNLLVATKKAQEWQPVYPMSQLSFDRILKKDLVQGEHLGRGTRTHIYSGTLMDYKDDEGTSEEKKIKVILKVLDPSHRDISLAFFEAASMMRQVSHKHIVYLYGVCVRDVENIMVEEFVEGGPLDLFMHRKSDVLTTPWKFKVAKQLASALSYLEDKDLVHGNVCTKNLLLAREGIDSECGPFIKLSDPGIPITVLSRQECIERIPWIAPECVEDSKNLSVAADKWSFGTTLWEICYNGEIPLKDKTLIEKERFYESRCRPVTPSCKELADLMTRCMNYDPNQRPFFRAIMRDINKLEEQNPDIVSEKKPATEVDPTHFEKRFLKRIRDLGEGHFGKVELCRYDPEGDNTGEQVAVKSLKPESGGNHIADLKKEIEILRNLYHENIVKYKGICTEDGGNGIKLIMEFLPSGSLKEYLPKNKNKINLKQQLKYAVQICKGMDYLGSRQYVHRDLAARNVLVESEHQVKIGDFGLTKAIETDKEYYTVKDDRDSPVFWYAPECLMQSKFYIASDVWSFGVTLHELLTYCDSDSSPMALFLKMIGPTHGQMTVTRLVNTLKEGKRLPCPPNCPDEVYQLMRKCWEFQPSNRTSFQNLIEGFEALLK
Chain of RAC-alpha serine/threonine-protein kinase (P31749 whole entry): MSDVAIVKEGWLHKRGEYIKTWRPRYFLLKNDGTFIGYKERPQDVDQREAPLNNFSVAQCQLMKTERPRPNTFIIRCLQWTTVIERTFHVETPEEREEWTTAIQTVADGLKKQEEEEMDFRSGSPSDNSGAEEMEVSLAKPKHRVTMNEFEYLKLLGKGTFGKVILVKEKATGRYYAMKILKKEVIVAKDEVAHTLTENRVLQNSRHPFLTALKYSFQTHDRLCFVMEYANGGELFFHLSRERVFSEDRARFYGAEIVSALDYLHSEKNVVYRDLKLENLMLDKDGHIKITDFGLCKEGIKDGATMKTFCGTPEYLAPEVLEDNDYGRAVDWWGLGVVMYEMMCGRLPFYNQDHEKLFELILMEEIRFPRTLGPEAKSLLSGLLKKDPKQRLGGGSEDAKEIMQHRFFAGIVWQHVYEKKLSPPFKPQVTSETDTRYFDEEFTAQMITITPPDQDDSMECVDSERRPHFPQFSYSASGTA
Chain of Aurora kinase B (Q96GD4 whole entry): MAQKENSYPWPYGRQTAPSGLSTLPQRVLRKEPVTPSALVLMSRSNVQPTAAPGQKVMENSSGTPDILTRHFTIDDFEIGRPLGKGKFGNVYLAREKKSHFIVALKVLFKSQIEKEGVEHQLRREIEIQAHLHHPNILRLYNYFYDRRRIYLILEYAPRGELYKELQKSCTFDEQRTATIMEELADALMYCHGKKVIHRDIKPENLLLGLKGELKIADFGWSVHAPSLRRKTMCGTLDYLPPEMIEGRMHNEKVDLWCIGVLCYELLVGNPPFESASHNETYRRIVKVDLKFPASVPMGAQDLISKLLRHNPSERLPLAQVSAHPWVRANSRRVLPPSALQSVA
Chain of Serine/threonine-protein kinase pim-1 (P11309 whole entry): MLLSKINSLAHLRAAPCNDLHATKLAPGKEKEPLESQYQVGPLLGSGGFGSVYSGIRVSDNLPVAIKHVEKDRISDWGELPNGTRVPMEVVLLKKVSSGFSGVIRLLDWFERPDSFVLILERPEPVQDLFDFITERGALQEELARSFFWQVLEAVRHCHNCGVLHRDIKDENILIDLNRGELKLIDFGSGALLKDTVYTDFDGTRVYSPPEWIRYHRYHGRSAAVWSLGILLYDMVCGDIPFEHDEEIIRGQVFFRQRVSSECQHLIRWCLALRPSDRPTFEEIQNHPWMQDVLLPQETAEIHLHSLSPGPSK
Chain of Hepatocyte growth factor receptor (P08581 whole entry): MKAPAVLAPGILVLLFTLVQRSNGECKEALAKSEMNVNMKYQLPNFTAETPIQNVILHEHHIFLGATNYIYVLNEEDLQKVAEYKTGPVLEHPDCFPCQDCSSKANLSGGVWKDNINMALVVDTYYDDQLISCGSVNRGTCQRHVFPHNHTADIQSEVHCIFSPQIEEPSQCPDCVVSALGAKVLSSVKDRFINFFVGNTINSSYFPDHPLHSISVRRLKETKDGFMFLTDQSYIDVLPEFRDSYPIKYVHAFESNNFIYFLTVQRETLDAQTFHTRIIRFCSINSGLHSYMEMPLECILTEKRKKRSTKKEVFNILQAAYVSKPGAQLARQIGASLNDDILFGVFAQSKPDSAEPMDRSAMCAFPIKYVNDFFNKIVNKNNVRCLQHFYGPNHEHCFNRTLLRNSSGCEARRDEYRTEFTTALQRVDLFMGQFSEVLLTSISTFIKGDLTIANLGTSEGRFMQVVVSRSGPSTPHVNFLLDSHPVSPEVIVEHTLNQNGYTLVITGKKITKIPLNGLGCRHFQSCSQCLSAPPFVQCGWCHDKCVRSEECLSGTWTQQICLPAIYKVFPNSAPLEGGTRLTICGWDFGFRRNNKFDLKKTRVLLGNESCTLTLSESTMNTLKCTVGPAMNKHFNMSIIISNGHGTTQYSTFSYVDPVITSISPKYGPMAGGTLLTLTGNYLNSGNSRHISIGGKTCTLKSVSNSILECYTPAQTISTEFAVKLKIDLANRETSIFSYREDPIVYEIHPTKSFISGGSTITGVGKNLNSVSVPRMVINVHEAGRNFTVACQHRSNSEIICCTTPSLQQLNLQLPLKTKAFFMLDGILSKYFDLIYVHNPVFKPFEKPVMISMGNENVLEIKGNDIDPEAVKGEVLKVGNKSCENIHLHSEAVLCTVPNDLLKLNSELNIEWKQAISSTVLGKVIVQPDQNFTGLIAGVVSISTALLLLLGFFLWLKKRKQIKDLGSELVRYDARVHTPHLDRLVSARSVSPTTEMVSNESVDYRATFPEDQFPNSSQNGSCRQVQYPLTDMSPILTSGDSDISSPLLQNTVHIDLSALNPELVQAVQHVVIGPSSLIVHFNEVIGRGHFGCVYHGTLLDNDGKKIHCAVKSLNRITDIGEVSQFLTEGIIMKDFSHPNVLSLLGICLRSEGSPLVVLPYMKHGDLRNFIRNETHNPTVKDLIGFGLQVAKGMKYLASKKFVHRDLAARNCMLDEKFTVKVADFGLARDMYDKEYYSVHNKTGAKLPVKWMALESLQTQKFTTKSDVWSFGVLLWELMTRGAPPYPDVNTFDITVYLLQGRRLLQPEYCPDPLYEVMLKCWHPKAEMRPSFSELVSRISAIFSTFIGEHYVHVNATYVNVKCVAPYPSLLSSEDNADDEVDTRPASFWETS

CN1CCN(c2ccc(OC(F)(F)F)c(Nc3ncc4c(n3)-c3c(c(C(N)=O)nn3CCO)CC4)c2)CC1 [ONVANSERTIB]
pIC50 [1]: < 5.00 | pIC50 [2]: < 5.00 | pIC50 [3]: < 5.00 | Activity (Mus musculus [4]): Non-toxic | pIC50 [5]: < 5.00 | pIC50 [6]: < 5.00 | pIC50 (Ephrin type-A receptor 2): < 5.00 | pIC50 [7]: < 5.00 | pIC50 [8]: < 5.00 | pIC50 [9]: < 5.00 | pIC50 [10]: < 5.00 | pIC50 [11]: < 5.00 | pIC50 [12]: < 5.00 | pIC50 [13]: < 5.00 | pIC50 [14]: < 5.00 | pIC50 [15]: < 5.00 | pIC50 [16]: < 5.00 | inhibition in vivo at 60 mg/kg (HCT-116 [17]): 89% | pIC50 [18]: 6.08 | pIC50 (Activated CDC42 kinase 1): < 5.00 | pIC50 [19]: < 5.00 | pIC50 (Aurora kinase B): < 5.00 | pIC50 [20]: < 5.00 | pIC50 [21]: < 5.00 | pIC50 [22]: < 5.00 | pIC50 [23]: < 5.00 | pIC50 [24]: < 5.00 | IC50 [25]: > 10 µM | solubility [26]: 201 µM (≈ 107 µg/mL) | solubility [27]: > 3400 µg/mL | Papp (Caco-2): permeable | Papp [28]: 49.6 ×10⁻⁶ cm/s | CLint scaled at 1 µM [29]: 16.9 mL/min/kg | Activity (Mus musculus [30]): 16% | inhibition in vivo at 90 mg/kg (HCT-116 [31]): 71% | inhibition in vivo at 120 mg/kg (HCT-116 [32]): 84%
